“And” between values parts separate entries of the source, which are not always exact repeats. Equal entries are not always repeated.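 Cultured in 96-well plates, cells were exposed to test compound for 48 hours across five concentrations. GI50 is the concentration that inhibits growth by half. TGI: concentration producing complete growth inhibition.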

Among the test systems are HOP-62 NSCLC; A549 NSCLC; MOLT-4 leukemia; OVCAR-3 ovarian; SK-OV-3 ovarian; HCT-15 colon; OVCAR-8 ovarian; SNB-19 CNS; K-562 leukemia; NCI/ADR-RES ovarian.
Common to all, as to assay: inhibition of tumour cell growth, NCI panel, 48 h

For the compound `COc1c(C2(c3ccc(F)cc3)SCCCS2)c(=O)c1=O`, the TGI in the assay on HOP-62 NSCLC, in the assay on A549 NSCLC, with MOLT-4 leukemia, in the assay on OVCAR-3 ovarian, in the assay with SK-OV-3 ovarian and in the assay with HCT-15 colon was greater than 100 µM throughout. Further, the TGI in the assay with OVCAR-8 ovarian, with SNB-19 CNS, in the assay on K-562 leukemia and in the assay with NCI/ADR-RES ovarian was greater than 100 µM in each case.

Turning to `[N-]=N[N+]#I1OC(C(F)(F)F)(C(F)(F)F)c2ccccc21`, the TGI with HOP-62 NSCLC is 28.4 µM; in the assay with A549 NSCLC, 39.2 µM; in the assay on MOLT-4 leukemia, 59.2 µM; in the assay with OVCAR-3 ovarian, 27.8 µM; with SK-OV-3 ovarian, 58.8 µM; with HCT-15 colon it was 21.2 µM. The TGI in the assay on OVCAR-8 ovarian is 34.5 µM; with SNB-19 CNS, greater than 100 µM; in the assay on K-562 leukemia, greater than 100 µM; in the assay with NCI/ADR-RES ovarian, 45.4 µM.

For `CCC1(O)C=CC(=O)C=C1`, the TGI in the assay on HOP-62 NSCLC is 67.5 µM; in the assay on A549 NSCLC, greater than 100 µM; with MOLT-4 leukemia, greater than 100 µM; in the assay with OVCAR-3 ovarian, 69.6 µM; in the assay on SK-OV-3 ovarian, greater than 100 µM; in the assay with HCT-15 colon, 55.5 µM. The TGI with OVCAR-8 ovarian was greater than 100 µM; in the assay on SNB-19 CNS, 39.2 µM; with K-562 leukemia it was greater than 100 µM; with NCI/ADR-RES ovarian, greater than 66.8 µM.

Turning to `COc1ccc(CN2C(=O)CCC/C=C\[C@H]2CI)cc1`, the TGI in the assay on HOP-62 NSCLC came to 31.1 µM; in the assay with A549 NSCLC, 21.5 µM; with MOLT-4 leukemia it was 25.6 µM; in the assay with OVCAR-3 ovarian, 23.7 µM; in the assay with SK-OV-3 ovarian, 30 µM; in the assay with HCT-15 colon, 24.9 µM. For the same compound, the TGI with OVCAR-8 ovarian was 27.5 µM; in the assay on SNB-19 CNS, 25.9 µM; in the assay with K-562 leukemia, greater than 100 µM; in the assay with NCI/ADR-RES ovarian it was 28.2 µM.

`COC(=O)C1Cc2c(C)cccc2C1=O` (stereo unspecified): the TGI with HOP-62 NSCLC, in the assay with A549 NSCLC, in the assay on MOLT-4 leukemia, with OVCAR-3 ovarian, with SK-OV-3 ovarian and in the assay on HCT-15 colon was greater than 100 µM throughout. The TGI with OVCAR-8 ovarian, with SNB-19 CNS, in the assay with K-562 leukemia and in the assay with NCI/ADR-RES ovarian was greater than 100 µM in each case.

For the compound `O=C(CCSC(CC(=O)c1ccc(Cl)cc1)c1ccc(Cl)cc1)Nc1ccc(Cl)cc1` (stereo unspecified), the TGI in the assay with HOP-62 NSCLC amounted to 29.1 µM; with A549 NSCLC it was 40 µM; with MOLT-4 leukemia, 11.5 µM; with OVCAR-3 ovarian, 27.1 µM; with SK-OV-3 ovarian it was 42.3 µM; in the assay on HCT-15 colon it was 24.2 µM. The TGI in the assay with OVCAR-8 ovarian was determined as 29.1 µM; in the assay with SNB-19 CNS it was 26.6 µM; in the assay with K-562 leukemia, 18.6 µM; with NCI/ADR-RES ovarian, 40.2 µM.

Take `O=C(Cc1ccc(Cl)c(Cl)c1)NCCCN1CCN(CCCN2CCCCC2)CC1`: the TGI came to 32.1 µM in the assay on HOP-62 NSCLC; 49.5 µM with A549 NSCLC; 28.8 µM in the assay on MOLT-4 leukemia; 80.7 µM in the assay with OVCAR-3 ovarian; 40.8 µM with SK-OV-3 ovarian; 46.5 µM with HCT-15 colon. Also, the TGI is greater than 100 µM in the assay on OVCAR-8 ovarian, 63.9 µM in the assay with SNB-19 CNS, 7.5 µM in the assay with K-562 leukemia and greater than 100 µM in the assay on NCI/ADR-RES ovarian.

Take `CCOn1cc(C[C@@]2(O)C(=O)OC3[C@@H](O)CO[C@@]32O)c2ccccc21` (stereo partly specified): the TGI in the assay with HOP-62 NSCLC, in the assay with A549 NSCLC, in the assay with MOLT-4 leukemia, with OVCAR-3 ovarian, with SK-OV-3 ovarian and in the assay with HCT-15 colon was greater than 100 µM in each case. Also, the TGI in the assay with OVCAR-8 ovarian, in the assay on SNB-19 CNS, in the assay with K-562 leukemia and in the assay with NCI/ADR-RES ovarian was greater than 100 µM each time.

Regarding `CCOC(=O)CC(C)C(C#N)(OP1(=O)OC(c2ccccc2)C(C)N1C)c1ccccc1` (stereo unspecified), the TGI in the assay with HOP-62 NSCLC is greater than 100 µM; in the assay on A549 NSCLC, greater than 100 µM; in the assay with MOLT-4 leukemia, 73.1 µM; in the assay with OVCAR-3 ovarian, greater than 100 µM; in the assay with SK-OV-3 ovarian it was greater than 100 µM; in the assay with HCT-15 colon it was greater than 100 µM. Besides, the TGI in the assay on OVCAR-8 ovarian, in the assay with SNB-19 CNS, in the assay on K-562 leukemia and with NCI/ADR-RES ovarian was greater than 100 µM in each case.

Consider `CSc1nc2c(c(N(C)C)n1)C=Nn1c(nc3ccccc31)S2`, for which the TGI in the assay on HOP-62 NSCLC, with A549 NSCLC, in the assay with MOLT-4 leukemia, in the assay on OVCAR-3 ovarian, in the assay on SK-OV-3 ovarian and in the assay on HCT-15 colon was greater than 100 µM in each case. The TGI with OVCAR-8 ovarian, with SNB-19 CNS, with K-562 leukemia and with NCI/ADR-RES ovarian was greater than 100 µM throughout.

For `COc1c2cc(C(C)(C)C)cc1CSCc1cc(C(C)(C)C)cc(c1OC)CCCCC2`, the TGI with HOP-62 NSCLC, in the assay with A549 NSCLC, in the assay on MOLT-4 leukemia, in the assay with OVCAR-3 ovarian, with SK-OV-3 ovarian and in the assay with HCT-15 colon was greater than 50 µM each time. Besides, the TGI in the assay on OVCAR-8 ovarian, in the assay with SNB-19 CNS, with K-562 leukemia and with NCI/ADR-RES ovarian was greater than 50 µM throughout.

On to `C=C1CC2CC[C@@]34C[C@@H]5O[C@@H]6C(O[C@H]7CC[C@H](CC(=O)OC8[C@@H](C)C9OC%10C[C@]%11(C[C@@H]%12O[C@@]%13(C[C@@H](C)[C@@H]%12O%11)C[C@H](C)[C@@H]%11OC%12CC(C(O)CO)OC%12C[C@@H]%11O%13)OC%10CC9O[C@H]8C[C@H]8O[C@@H](CC[C@@H]1O2)C[C@@H](C)C8=C)O[C@@H]7[C@@H]6O3)C5O4` (stereo partly specified), for which the GI50 in the assay with HOP-62 NSCLC was 0.000174 µM; in the assay with A549 NSCLC, less than 0.000148 µM; in the assay with MOLT-4 leukemia, less than 0.000148 µM; in the assay on OVCAR-3 ovarian, less than 0.000148 µM; in the assay on SK-OV-3 ovarian, less than 0.000148 µM; with HCT-15 colon, 0.000233 µM. The GI50 with OVCAR-8 ovarian, in the assay on SNB-19 CNS and in the assay with K-562 leukemia was less than 0.000148 µM throughout. Further, the TGI in the assay with A549 NSCLC was greater than 1.48 µM; in the assay with MOLT-4 leukemia it was 0.104 µM; with OVCAR-3 ovarian it was 0.00108 µM and < 0.000148 µM; with OVCAR-8 ovarian, 0.0305 µM; in the assay with SNB-19 CNS, 0.0127 µM; with K-562 leukemia, greater than 1.48 µM. The TGI with NCI/ADR-RES ovarian was 0.0304 µM.

As for `COC(=O)Cc1c([C@@H]2Nc3ccccc3[C@H]2CC(=O)OC)[nH]c2ccccc12`, the TGI in the assay on HOP-62 NSCLC was greater than 100 µM; with A549 NSCLC it was greater than 100 µM; in the assay on MOLT-4 leukemia it was 68.9 µM; in the assay with OVCAR-3 ovarian it was 42.8 µM; in the assay with SK-OV-3 ovarian, greater than 100 µM; with HCT-15 colon it was greater than 100 µM. Also, the TGI with OVCAR-8 ovarian was greater than 100 µM; in the assay on SNB-19 CNS, greater than 100 µM; in the assay with K-562 leukemia, 77.7 µM; with NCI/ADR-RES ovarian, greater than 100 µM.

In the case of `COc1cc2c(cc1OC)C(=O)N(c1ccc(O)cc1)C2`, the TGI in the assay on HOP-62 NSCLC, in the assay with A549 NSCLC, in the assay with MOLT-4 leukemia, with OVCAR-3 ovarian, in the assay with SK-OV-3 ovarian and in the assay with HCT-15 colon was greater than 100 µM in each case. Also, the TGI in the assay with OVCAR-8 ovarian, in the assay on SNB-19 CNS, with K-562 leukemia and in the assay with NCI/ADR-RES ovarian was greater than 100 µM throughout.

Consider `O=C1Nc2ccccc2C(=O)OC(Cc2ccccc2)=Nc2ccccc21`, for which the TGI in the assay on HOP-62 NSCLC, in the assay with A549 NSCLC, with MOLT-4 leukemia, in the assay with OVCAR-3 ovarian, in the assay with SK-OV-3 ovarian and with HCT-15 colon was greater than 100 µM in each case. The TGI in the assay on OVCAR-8 ovarian, with SNB-19 CNS, in the assay with K-562 leukemia and in the assay with NCI/ADR-RES ovarian was greater than 100 µM each time.

As to `CCOC(=O)C1(Cc2ccc(C)cc2)Cc2ccc(C)cc2C1=O` (stereo unspecified), the TGI in the assay on HOP-62 NSCLC is greater than 100 µM; with A549 NSCLC, greater than 100 µM; in the assay on MOLT-4 leukemia it was 27.7 µM; with OVCAR-3 ovarian it was greater than 100 µM; in the assay with SK-OV-3 ovarian, greater than 100 µM; in the assay on HCT-15 colon, greater than 100 µM. For the same compound, the TGI in the assay on OVCAR-8 ovarian is greater than 96.6 µM; in the assay on SNB-19 CNS, greater than 100 µM; with K-562 leukemia, greater than 41.4 µM; with NCI/ADR-RES ovarian it was 32.5 µM.

Regarding `CN(NC(=O)c1ccco1)C1=NCCCCN1`, the TGI with HOP-62 NSCLC, with A549 NSCLC, in the assay with MOLT-4 leukemia, in the assay with OVCAR-3 ovarian, in the assay on SK-OV-3 ovarian and with HCT-15 colon was greater than 100 µM each time. In addition, the TGI with OVCAR-8 ovarian, in the assay on SNB-19 CNS, in the assay on K-562 leukemia and with NCI/ADR-RES ovarian was greater than 100 µM throughout.

The values are drawn from PubChem BioAssay (NCI).
